Earlier results as cited in US20090023644A1 (priority 2004, published 2009).
Like-named read-outs stand apart in the source and are kept apart here.

Columns and labels:
[1] = 600 ng/min
[2] = 8 ng/kg/min IV infusion for 8 hours
[3] = IV infusion 10 or 20 minutes at 0.8, 3.2 or 16 ng/kg/min

**Q.** Which cardiac output [3] does the source give for Calcitonin gene-related peptide [CGRP] here?
**A.** Its cardiac output is “increase”.

**Q.** What about the systemic vascular resistance [3] of the same substance?
**A.** The systemic vascular resistance was “decreased”.

**Q.** What about the tachycardia [3] of the same substance?
**A.** Its tachycardia is “no tachycardia observed”.

**Q.** And the “type of vasodilator behaviour” value (at lower doses)?
**A.** Its value is “pure arteriolar vasodilator”.

**Q.** And the “type of vasodilator behaviour” value (at the higher dose)?
**A.** Its value is “mixed vasodilator”.

**Q.** And the “discontinuation of infusion due to nausea, diarrhea, and/or severe facial flushing” value ([1]; 48-hour continuous IV infusion)?
**A.** The value was “discontinued after 28 hours in 3 out of the 6 patients”.

**Q.** And the “hemodynamic functions such as left ventricular function” value ([1]; pulsed therapy)?
**A.** Its value is “improve”.

**Q.** What about the unfavorable side effects ([1]; pulsed therapy) of the same substance?
**A.** Its unfavorable side effects is “tachycardia and neurohumoral response were also observed”.

**Q.** What about the tolerability ([1]; pulsed therapy (2-8 hour infusions for two consecutive days)) of the same substance?
**A.** Its tolerability is “well tolerated”.

**Q.** What about the cardiac output [2] of the same substance?
**A.** Its cardiac output is “increased”.

**Q.** And the “pulmonary and systemic arterial pressure” value [2]?
**A.** The value was “decreased”.

**Q.** What about the “time to loss of hemodynamic effects after stopping CGRP infusion” value [2] of the same substance?
**A.** Its value is ≤ 30 min.

**Q.** And the vascular resistance [2]?
**A.** The vascular resistance was “decreased”.

**Q.** What about the glomerular filtration ([2]; during treatment) of the same substance?
**A.** The glomerular filtration was “increased”.

**Q.** And the renal blood flow ([2]; during treatment)?
**A.** Its renal blood flow is “increased”.
